According to patent US20230346769A1, “USE OF SIMPLE ACYCLIC POLYAMINES FOR THE TREATMENT OF DISEASES CAUSED BY PARASITES OF THE GENUS LEISHMANIA” (Universidad De Granada, priority 2020, published 2023):

Legend:
[1] = Potentiometric titrations, protonation constants; assay type: physicochemical; details: 0.15 M NaCl, 298.1 K
Method: FEM measurements. Potentiometric titrations were conducted at 298.1 ± 0.1 K using 0.15 M NaCl as the support electrolyte. The experimental procedure (burette, potentiometer, cell, stirrer, microcomputer, etc.) has been fully described elsewhere (E. García-Spain, M.-J. Ballester, F. Lloret, J.M. Moratal, J. Faus and A. Bianchi, J. Chem. Soc. Dalton Trans. 1988, 101-104). The FEM data acquisition was performed with the PASAT software (M. Fontanelli and M. Micheloni, Program for the automatic control of the microburette and the acquisition of the electromotor force readings (PASAT). Minutes of the 1st Spanish-Italian Congress of Thermodynamics of Metal Complexes, Peñíscola, Castellón, Spain, 1990). The reference electrode was an Ag/AgCl electrode in saturated KCI solution. The glass electrode was calibrated as a hydrogen ion concentration probe by titration of previously standardised amounts of HCl with CO2 free NaOH solutions and the equivalent point determined by Gran’s method ((a) G. Gran, Analyst 1952, 77, 661 -671; (b) F.J. Rossotti and H. Rossotti, J. Chem. Educ. 1965, 42, 375-378) providing the standard potential, Eº’, and the ionic product of water (pKw = 13.73 (1)).
Hyperquad software was used to calculate protonation and stability constants (P. Gans, A. Sabatini and A. Vacca, Talanta 1996, 43, 1739-1753). The pH range investigated was 2.5-11.0 and the concentration of the ligands varied from 1×10^-3 to 5×10^-3 M. The different titration curves for each system (at least two) were treated as a single set or as separate curves without significant variations in the values of the stability constants. Finally, the data sets were fused and treated simultaneously to give the final protonation constants (Table 1). For compounds 1, 7 and 9, two protonation constants have been detected in the pH range studied with values ranging from 5.51 to 9.68 logarithmic units. For the remaining compounds, three protonation constants have been measured with values ranging from 10.08 to 2.25 logarithmic units. All compounds have charge +1 at the physiological pH value of 7.4.

[2] = test system: L. infantum promastigote forms; test: In vitro activity against extracellular (promastigote) forms; assay type: cell-based, Leishmania infantum; details: for IC50: Leishmania infantum, 72 h; for Selectivity Index (SI) L. infantum Promastigote forms: IC50 of macrophages / IC50 of parasite form
Excerpt: (§1) Methodology: Cultures of three Leishmania species, representative of the species causing each of the clinical forms of the disease, were used for these studies. Specifically, strains MCAN/ES/2001/UCM-1 O of L.infantum, isolated and characterised in Madrid from an infected dog; MHOM/BR/1975/M2904 of L.braziliensis, isolated in Brazil in a human case, and LCR-L 133 LRC of L.donovani. isolated in Jerusalem, Israel from a case of kala-azar […] (WHO Technical Reports Series 949. Geneva: WHO. March. The cultures of parasites come from an own collection which was prepared from a biobank project (Biobank and Characterisation Unit of Strains and Species of Trypanosomatids, Responsible for Human, Animal and Plant Pathologies, Cgl-2008-03687-E/Bos.), and are available on request.
(§2) The promastigote forms of the three species studied were cultured in vitro in sterility in single-phase MTL culture medium (Medium Trypanosomes Liquid) made from Hank’s Balanced Salts (Sigma-Aldrich, H6136) enriched with 10% (v/v) of Fetal Bovine Serum (SBF-1) inactivated at 56° C./ 30 minutes. The parasite inoculum to initiate the culture was 5 × 10^4 cells/ml in 5 ml medium in 25 cm^2 Falcon® plastic flasks and kept in an oven at 28° C. The cultures were performed routinely, achieving exponential growth of the flagellates until obtaining the cell mass necessary for the subsequent studies. Both promastigote forms and amastigote forms were used to conduct the assays.
(§3) The promastigote forms of the three Leishmania strains, cultured in the manner described above, were harvested in their exponential growth phase by centrifugation at 400 g for 10 min. The number of parasites was counted in a Neubauer Haemocytometer Counting Chamber and were inoculated in a 24-well plate at a concentration of 5 ×10^4 parasites/well.
(§4) The compounds to be assayed were dissolved in DMSO at a concentration of 0.01% (v/v), concentration at which this solvent is not toxic nor has any effect on the growth of parasites. The compounds were added to the culture medium at final concentrations of 100, 50, 25 and 12.5 µM. […] M. et al. Med. Chem. 2011. 54. 970-979].

[3] = test system: L. infantum amastigote forms; test: In vitro activity against intracellular (amastigote) forms in macrophages; assay type: cell-based, Leishmania infantum; details: for IC50: Leishmania infantum, Macrophage, 72 h; for Selectivity Index (SI) L. infantum Amastigote forms: IC50 of macrophages / IC50 of parasite form
Excerpt: as §1
(§5) For the study of the in vitro effect on intracellular forms of Leishmania, the experimental model designed by the group of the present inventors was used [Sánchez-Moreno. M. et al. Med. Chem. 2012, 55, 9900-9913; Sánchez-Moreno. M. et al. J. Antimicrob. Chemother. 2012, 67, 387-397]. The macrophages were detached from the culture flask where they were attached by dry blows. To do this, it was incubated in cold for 5 minutes and after that the flask was hit with the palm of the hand until the cells were detached from the flask. Then, they were passed to a 25 ml capacity steriling conical bottom flask (Deltalab) to centrifuge them at 120 g for 5 minutes, removing the supernatant and were counted in Neubauer’s chamber. Cells were suspended in RPMI medium at a concentration of 1×10^4 cells/well, then cultured in 24-well plates into which a 12 mm round slide had previously been placed into each well. For adherence, the cells were left 24 h at 37° C. in 5% CO2. Subsequently, the cells were infected in vitro by placing Leishmania cells at the rate of 10 parasites/macrophage according to [Sánchez-Moreno. M et al. Med. Chem. 2011, 54, 970-979]. […] The products were allowed to act for 72 hours of incubation.
(§6) After that time, the crystals were removed and fixed with methanol on a slide and allowed to dry, after which DPX microscopy mounting medium (Panreac®) was added to it. Once the preparations had been mounted, they were dyed with Giemsa by diluting Azur-Eosin-Methylene Blue solution according to Giemsa DC (Code 251338) with Sorensen buffer (1:10 dilution). The preparations were covered and allowed to colour for 20 minutes, after which they were washed with distilled water and then allowed to drain and dry vertically. Finally, the amastigote forms were counted with the aim of immersion in a total of 200 cells.

[4] = test system: L. braziliensis promastigote forms; test: In vitro activity against extracellular (promastigote) forms; assay type: cell-based, Leishmania braziliensis; details: for Selectivity Index (SI) L. brazilensis Promastigote forms: IC50 of macrophages / IC50 of parasite form; for IC50: Leishmania braziliensis, 72 h
Excerpt: as §1, §2, §3, §4

[5] = test system: L. braziliensis amastigote forms; test: In vitro activity against intracellular (amastigote) forms in macrophages; assay type: cell-based, Leishmania braziliensis; details: for Selectivity Index (SI) L. brazilensis Amastigote forms: IC50 of macrophages / IC50 of parasite form; for IC50: Leishmania braziliensis, Macrophage, 72 h
Excerpt: as §1, §5, §6

[6] = test system: L. donovani amastigote forms; test: as above; assay type: cell-based, Leishmania donovani; details: for Selectivity Index (SI) L. donvovani Amastigote forms: IC50 of macrophages / IC50 of parasite form; for IC50: Leishmania donovani, Macrophage, 72 h
Excerpt: as §1, §5, §6

SMILES	Log β [1]	Logarithm of the protonation constant H2L+H ⇌ H3L [1]	Logarithm of the protonation constant H+L ⇌ HL [1]	Logarithm of the protonation constant HL+H ⇌ H2L [1]	IC50 [2] [µM]	IC50 [3] [µM]	Selectivity Index (SI) L. brazilensis Promastigote forms [4]	IC50 [4] [µM]	Selectivity Index (SI) L. brazilensis Amastigote forms [5]	IC50 [5] [µM]	Selectivity Index (SI) L. donvovani Amastigote forms [6]	IC50 [6] [µM]	Selectivity Index (SI) L. infantum Promastigote forms [2]	Selectivity Index (SI) L. infantum Amastigote forms [3]
CN(C)CCNCc1cccnc1 [Compound 5, 1-{3-pyridyl}-5-methyl-2,5-diazahexane]	17.98(1)	3.16(1)	9.18(1)	5.63(1)	9.2 ± 0.7	10 ± 0.8	14	16.7 ± 0.5	11	20 ± 2	13	17.6 ± 0.7	–	–
CN(C)CCNCc1ccc2ccccc2n1 [Compound 7]	14.63 (1)	–	9.17(1)	5.45(1)	84.4 ± 5.1	49.7 ± 3.6	4	105 ± 11.6	11	38.9 ± 2.7	11	38.9 ± 3.2	5	9
CN(C)CCNCc1ccccn1 [Compound 4, 1-(2-pyridyl)-5-methyl-2,5-diazahexane]	16.88(2)	2.25(2)	9.06(1) ^b	5.58(1)	28.6 ± 2.5	33.6 ± 1.4	33	37.3 ± 0.9	40	30.8 ± 1.3	32	38.8 ± 1.4	43	37
